Measured values taken from patent US12180509B2, “Methods for reprograming non-pluripotent cells into pluripotent stem cells” (Beihao Stem Cell and Regenerative Medicine Research …, priority 2015, dated 2024).

Legend:
Assay type in all cases: cell-based, mouse
[1] = system: pluripotency-related genes and XEN marker genes; assay: Real-time PCR of pluripotency, XEN and MET genes during chemical reprogramming
Experimental: Total RNA from an entire well of cultured cells was isolated using the RNeasy Plus MiniKit (QIAGEN). For a single colony, RNA was isolated using the RNeasy Micro Kit (QIAGEN). RNA was converted to cDNA using TransScript First-Strand cDNA Synthesis SuperMix (TransGen Biotech). PCR was carried out using Power SYBRR Green PCR Master Mix (Applied Biosystems) and performed on an ABI Prism 7300 Sequence Detection System. The data were analyzed using the delta-delta Ct method.

XEN-like cells = assay: Transition of XEN-like colonies to CiPSCs (stages 2 and 3); conditions: screen of 88 small molecules in the presence of VC6TFA plus DZNep, stage 2 of 12 days
Experimental: MEFs, MNFs or MAFs were plated at 300,000 cells per 100 mm dish, or 50,000 cells per well on a 6-well plate. The next day (day 0), the culture was changed into stage 1 medium supplemented with small-molecule cocktail VC6TFAE (0.5 mM VPA, […] CHIR99021, 10 μM 616452, 5 μM Tranylcypromine, 50 µM FSK, 0.05 μM AM580 and 5 μM EPZ004777). […] The cells were harvested and then re-plated at 100,000 cells per well of a 6-well plate (1:15). During days 12-16, the cells were cultured in stage 1 medium supplemented with a modified small-molecule cocktail VC6TFA (0.5 mM VPA, 10 μM CHIR99021, 10 μM 616452, 5 μM Tranylcypromine, 10 μM FSK, 0.05 μM AM580). On day 16, XEN-like epithelial colonies were formed and the culture was changed into stage 2 medium supplemented with small-molecule cocktail VC6TFAZDS (0.5 mM VPA, 10 μM CHIR99021, 10 μM 616452, 5 μM Tranylcypromine, 10 μM FSK, 0.05 μM AM580, 0.05 μM DZNep, 0.5 μM 5-aza-dC and 5 μM SGC0946). On day 28, the culture was transferred into stage 3 medium. […] During CiPSC induction, the medium and small molecules were changed every 4 days.
Studies were next conducted to identify small molecules that facilitate the transition of XEN-like colonies to CiPSCs during stages 2 and 3. Small-molecule screenings were performed in the presence of small molecule cocktail VC6TFA plus DZNep (Z) for 12 days with successful enhanced generation of CiPSC colonies. […]

MEFs from OG mice [2] = assay: Screen for small molecules that facilitate late reprogramming (DOX-inducible Oct4 plus VC6T); conditions: VC6T plus DOX-induced Oct4 for the first 4-8 days
Experimental: To identify small molecules that facilitate late reprogramming, a doxycycline (DOX)-inducible Oct4 expression screening system was used (Li, et al., Cell Res. 21:196-204 (2011)).
MEFs from OG mice were plated as described above and infected with Fu-tet-hOct4 and FUdeltaGW-rtTA lentiviruses. The induction protocol was carried out as described above.
After infection, the culture medium was replaced with LIF-free ESC culture medium containing VC6T (VPA, CHIR99021, 616452, Tranylcypromine) plus DOX (1 μg/ml). Alternatively, MEFs harboring DOX-inducible Oct4 from Tet-On POUSF1 mouse strain B6; 129-Gt (ROSA)26Sor^tm1(TrtTA*M2)Jae Colla1^tm2(tetO-Pou5f1)Jae/J were used in this screen (Li, et al., Cell Res., 21:196-204 (2011)). These two DOX-inducible systems were only used in this screen, but not in complete chemical reprogramming. Individual chemicals from small-molecule libraries were added to each well. Small molecules were added at different culture time points. 5-aza-C(5-Azacytidine) and DZNep were added from day 8. The medium and chemicals were changed every 4 days; DOX was added only for the first 4-8 days. Chemical treatments were continued for 16-24 days or until GFP-positive colonies appeared. Primary hits were selected for further confirmation and optimization. CiPSC colonies were counted on day 44. […]

[3] = system: intracellular levels SAH to SAM; assay: SAM and SAH quantification by HPLC; conditions: during chemical reprogramming, relative to MEFs
Experimental: (§1) CAMP was quantified using the Direct cAMP ELISA Kit (Enzo) according to the manufacturer's protocol. For SAM and SAH quantification, cultured cells (1,000,000 cells) were trypsinized and homogenized by ultrasonication in 200 μl PBS. Then 40 μl of 400 mg/ml TCA was added. Cell extracts were incubated on ice for 30 min. After centrifugation at 4° C. (13,000 rpm, 15 min), the supernatants were filtered through a 0.22 μm filter and analyzed by high-performance liquid chromatography (HPLC, Shimadzu) with HILIC columns (Waters).

Oct4 promoter = assay: DNA methylation (bisulfite sequencing) and H3K9 methylation (ChIP) at the Oct4 promoter; conditions: presence versus absence of DZNep, day 32
Experimental: Genomic DNA was modified by bisulfite treatment and purified using the MethylCode™ Bisulfite Conversion Kit (Invitrogen) according to the manufacturer's protocol. The amplified fragments were cloned into the pEASY-blunt Vector (Transgene). Ten randomly picked clones from each sample were sequenced. ChIP was performed using the EZ-Magna ChIP A/G Kit (Millipore) according to the manufacturer's protocol. Anti-H3K27me3 (Abcam, ab6002), anti-H3K9me2 (Millipore, 07-441), anti-H3K4me3 (Abcam, ab8580) and anti-H3K9ac (Abcam, ab4441) antibodies were used. Following immunoprecipitation, DNA was analyzed by real-time PCR.

MEFs from OG mice [4] = assay: Screen for chemical substitutes of Oct4 in OG-MEFs infected with Sox2, Klf4 and c-Myc; conditions: OG-MEFs with viral expression of Sox2, Klf4 and c-Myc, no Oct4
Experimental: To identify chemical substitutes of Oct4, MEFs from OG mice were plated at a density of 20,000 cells per well of a 12-well plate and infected with lentiviruses encoding Sox2, Klf4 and c-Myc. After infection, the medium was replaced with LIF-free ESC culture medium. Individual chemicals from small-molecule libraries were added to each well. The medium and chemicals were changed every 4 days. Chemical treatments were continued for 14-20 days or until GFP-positive colonies appeared. Primary hits were selected for further confirmation and optimization.
Small molecules that enable reprogramming in the absence of Oct4 were searched using Oct4 promoter-driven green fluorescent protein (GFP) expression (OG) mouse embryonic fibroblasts (MEFs), with viral expression of Sox2, Klf4, and c-Myc.

cAMP = assay: Intracellular cAMP quantification (Direct cAMP ELISA); conditions: MEF, FSK 10 μM versus DMSO control
Experimental: as §1
The effect of inhibiting adenylate cyclase on the number of colonies generated by VC6TFZ was tested. […] The effect of replacing FSK with the cAMP analog (DBcAMP), alone or in combination with phosphodiesterase inhibitors, IBMX, or the phosphodiesterase inhibitor, rolipram and IBMX, on cell reprograming was also tested. Both DBcAMP and IBMX were used at 50 μM in the combination treatment.

| SMILES | expression of pluripotency genes (Oct4, Dppa family genes) ([1]; stage 2, XEN-like cells) | CiPSC colony formation in stage 3 (XEN-like cells) | small molecule hit facilitating late reprogramming (MEFs from OG mice [2]) | concentration ratio of SAH to SAM [3] | DNA methylation and H3K9 methylation at the Oct4 promoter (Oct4 promoter) | Oct4 expression ([1]; after addition of DZNep in the late phase of chemical reprogramming) | chemical substitute for Oct4 (iPSC induction) (MEFs from OG mice [4]) | intracellular cAMP level (cAMP) | endogenous expression of Sall4 and Sox2 on withdrawal of the chemical ([1]; chemicals withdrawn from VC6TF, after 12 days) |
| --- | --- | --- | --- | --- | --- | --- | --- | --- | --- |
| Nc1ncn([C@H]2C[C@H](O)[C@@H](CO)O2)c(=O)n1 [5-aza-dC] | promote the expression of pluripotency genes | CiPSC colonies formed in stage 3 only when the cell culture medium was supplemented with 5-aza-dC | – | – | – | – | – | – | – |
| Nc1nccc2c1ncn2[C@@H]1C=C(CO)[C@@H](O)[C@H]1O [DZNep, 3-deazaneplanocin A] | – | – | identified in this screen | elevates the concentration ratio of SAH to S-adenosylmethionine (SAM) | significantly decreased | enhanced significantly | – | – | – |
| C=C[C@@]1(C)CC(=O)[C@]2(O)[C@@]3(C)[C@@H](O)CCC(C)(C)[C@@H]3[C@H](O)[C@H](OC(C)=O)[C@@]2(C)O1 [Forskolin] | – | – | identified in this screen | – | – | – | identified as chemical “substitutes” for Oct4 | significantly elevates the CAMP level | essential in activating the endogenous expression of Sall4 and Sox2 |
